Measurements: PubChem BioAssay AID248 (DTP/NCI, 2004)
Inconclusive results and toxic doses are left out.

Test system: L1210 leukemia ip in BDF1 mice, survival T/C
Assay: NCI In Vivo Anticancer Drug Screen. Data for tumor model L1210 Leukemia (intraperitoneal) in B6D2F1 (BDF1) mice
Conditions: endpoint: mean survival time, higher = longer survival
Method in brief: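 Mice bearing the transplanted tumor received compound or vehicle. Survival of the treated group was divided by that of the vehicle-treated control group to give the ratio.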

[1] = dose: 100.0 mg/kg/injection, schedule: Q04DX002 (ip), vehicle: Klucel (hydroxypropylcellulose) (HPC)
[2] = dose: 400.0 mg/kg/injection, schedule: Q04DX002 (ip), vehicle: Klucel (hydroxypropylcellulose) (HPC)
[3] = dose: 100.0 mg/kg/injection, schedule: Q04DX003 (ip), vehicle: Klucel (hydroxypropylcellulose) (HPC)
[4] = dose: 200.0 mg/kg/injection, schedule: Q04DX003 (ip), vehicle: Klucel (hydroxypropylcellulose) (HPC)
[5] = dose: 200.0 mg/kg/injection, schedule: Q04DX002 (ip), vehicle: Klucel (hydroxypropylcellulose) (HPC)
[6] = dose: 100.0 mg/kg/injection, schedule: Q01DX001 (ip), vehicle: saline

Q: Which T/C (dose: 11.1 mg/kg/injection, schedule: Q01DX Z (ip), vehicle: saline) does the source give for O=[N+]([O-])C(Cl)(CN1CCOCC1)CN1CCOCC1 here?
A: Its T/C is 113 % of control.

Q: And the T/C (dose: 16.6 mg/kg/injection, schedule: Q01DX Z (ip), vehicle: saline)?
A: The T/C was 91 % of control.

Q: What about the T/C (dose: 25.0 mg/kg/injection, schedule: Q01DX Z (ip), vehicle: saline) of the same compound?
A: Its T/C is 95 % of control.

Q: How did the T/C [1] turn out when O=S(=O)(O)C(O)CC(c1ccccc1)S(=O)(=O)O (configuration not stated) was run?
A: Its T/C is 106 % of control.

Q: What about the T/C [2] of the same compound?
A: Its T/C is 98 % of control.

Q: How did the T/C (dose: 100.0 mg/kg/injection, schedule: Q01DX009 (ip), vehicle: Klucel (hydroxypropylcellulose) (HPC)) turn out when Cc1ccc([N+](=O)[O-])c(OC(=O)Nc2ccccc2Cl)c1 was run?
A: Its T/C is 105 % of control.

Q: And the T/C [3]?
A: The T/C was 100 % of control.

Q: And the T/C (dose: 200.0 mg/kg/injection, schedule: Q01DX009 (ip), vehicle: Klucel (hydroxypropylcellulose) (HPC))?
A: Its T/C is 100 % of control.

Q: What about the T/C [4] of the same compound?
A: Its T/C is 97 % of control.

Q: And the T/C (dose: 400.0 mg/kg/injection, schedule: Q01DX009 (ip), vehicle: Klucel (hydroxypropylcellulose) (HPC))?
A: The T/C was 107 % of control.

Q: And the T/C (dose: 400.0 mg/kg/injection, schedule: Q04DX003 (ip), vehicle: Klucel (hydroxypropylcellulose) (HPC))?
A: The T/C was 100 % of control.

Q: Cc1ccc(S(=O)(=O)COS(=O)(=O)C(F)(F)F)cc1 was tested. Which T/C [3] did it give?
A: Its T/C is 93 % of control.

Q: And the T/C [4]?
A: The T/C was 93 % of control.

Q: Which results are given for CCCCCCCCCCCCCCCCOc1ccc(S(=O)(=O)Nc2cc(C(=O)OC)cc(C(=O)OC)c2)cc1N?
A: T/C (dose: 100.0 mg/kg/injection, schedule: Q04DX003 (ip), vehicle: saline with Tween-80): 97 % of control; T/C (dose: 200.0 mg/kg/injection, schedule: Q04DX003 (ip), vehicle: saline with Tween-80): 90 % of control; T/C (dose: 400.0 mg/kg/injection, schedule: Q04DX003 (ip), vehicle: saline with Tween-80): 90 % of control

Q: Which results are given for Cc1no[n+]([O-])c1C(=O)O?
A: T/C [1]: 95 % of control; T/C [5]: 93 % of control

Q: Which T/C (dose: 25.0 mg/kg/injection, schedule: Q01DX001 (ip), vehicle: saline) does the source give for Cc1nnn2ccccc12 here?
A: Its T/C is 96 % of control.

Q: What about the T/C (dose: 50.0 mg/kg/injection, schedule: Q01DX001 (ip), vehicle: saline) of the same compound?
A: Its T/C is 100 % of control.

Q: What about the T/C [6] of the same compound?
A: The T/C was 100 % of control.

Q: For CCCCCCCCCCCCCCCCCCNC(=O)Nc1ccc([N+](=O)[O-])cc1Br, which T/C [1] is on record?
A: The T/C was 97 % of control.

Q: What about the T/C [5] of the same compound?
A: The T/C was 97 % of control.

Q: What about the T/C [2] of the same compound?
A: Its T/C is 90 % of control.

Q: Which results are given for CC1=CC(=O)CC(c2ccc(N(C)C)cc2)C1 (configuration not stated)?
A: T/C (dose: 25.6 mg/kg/injection, schedule: Q04DX002 (ip), vehicle: saline with Tween-80): 101 % of control; T/C (dose: 64.0 mg/kg/injection, schedule: Q04DX002 (ip), vehicle: saline with Tween-80): 97 % of control

Q: For O=C(COc1ccc(Cl)cc1Cl)Nc1ncn[nH]1, which T/C (dose: 100.0 mg/kg/injection, schedule: Q01DX001 (ip), vehicle: Klucel (hydroxypropylcellulose) (HPC)) is on record?
A: The T/C was 101 % of control.

Q: And the T/C (dose: 200.0 mg/kg/injection, schedule: Q01DX001 (ip), vehicle: Klucel (hydroxypropylcellulose) (HPC))?
A: The T/C was 104 % of control.

Q: What about the T/C (dose: 400.0 mg/kg/injection, schedule: Q01DX001 (ip), vehicle: Klucel (hydroxypropylcellulose) (HPC)) of the same compound?
A: The T/C was 95 % of control.

Q: Which T/C [1] does the source give for Nc1ccc(C(=O)O)cc1[N+](=O)[O-] here?
A: Its T/C is 95 % of control.

Q: And the T/C [5]?
A: The T/C was 100 % of control.

Q: And the T/C [2]?
A: The T/C was 95 % of control.

Q: Which results are given for CCCCCCCCCCN=C(N)N/C(N)=N/S(=O)(=O)c1ccc(OCCC)cc1?
A: T/C (dose: 100.0 mg/kg/injection, schedule: Q04DX002 (ip), vehicle: saline with Tween-80): 100 % of control; T/C (dose: 200.0 mg/kg/injection, schedule: Q04DX002 (ip), vehicle: saline with Tween-80): 110 % of control; T/C (dose: 400.0 mg/kg/injection, schedule: Q04DX002 (ip), vehicle: saline with Tween-80): 107 % of control

Q: Which T/C [6] does the source give for O=c1c(-c2ccccc2)c(-c2ccccc2)n2n1C1CCC2C1 (configuration not stated) here?
A: The T/C was 95 % of control.

Q: And the T/C (dose: 200.0 mg/kg/injection, schedule: Q01DX001 (ip), vehicle: saline)?
A: The T/C was 89 % of control.

Q: What about the T/C (dose: 400.0 mg/kg/injection, schedule: Q01DX001 (ip), vehicle: saline) of the same compound?
A: The T/C was 110 % of control.

Q: CCCCCCCC(=O)N1CC(C)OC(C)C1 (configuration not stated) was tested. Which T/C [1] did it give?
A: The T/C was 100 % of control.

Q: What about the T/C [5] of the same compound?
A: The T/C was 114 % of control.

Q: And the T/C [2]?
A: The T/C was 107 % of control.

Q: Which T/C [1] does the source give for Cc1ccc(C(=O)/C=C(\C(=O)c2ccccc2)c2ccccc2)cc1C here?
A: The T/C was 97 % of control.

Q: And the T/C [5]?
A: The T/C was 93 % of control.

Q: And the T/C [2]?
A: The T/C was 97 % of control.

Q: With Cn1c(Cl)c(/C=N/NC(N)=S)c2ccccc21 as the compound, how does the T/C (dose: 50.0 mg/kg/injection, schedule: Q04DX002 (ip), vehicle: Klucel (hydroxypropylcellulose) (HPC)) read?
A: Its T/C is 91 % of control.

Q: And the T/C [1]?
A: Its T/C is 91 % of control.

Q: And the T/C [5]?
A: The T/C was 87 % of control.
